# Assay results taken from patent US20080145412A1, “METHOD OF PROMOTING ANGIOGENESIS” (Acologix, Inc., priority 2006, published 2008).
# What was measured:
# FGF2 [1] = test: ELISA timecourse of FGF2 in calvaria organ culture lysates and conditioned media (FIG. 2A); type: cell-based, mouse
# Procedure: (§1) To quantitatively measure the increase in FGF2 in AC-100 treated bones, lysates were harvested over a comprehensive timecourse (30 min, 1 hr, 2 hr, 6 hr, 24 hr, 48 hr, 72 hr, day 4, day 5) and analysed for FGF2 and other bone anabolic factors using ELISA. […] Consistent with our previous findings AC-100 increased PGE2 in the conditioned media and TGFbeta and Fibronectin in both the conditioned media and bone lysate.
# (§2) In addition, this response roughly correlated with expression of PGE-2 following AC-100 treatment (2B), TGF-β (2C) and Fibronectin (2D). Increases in PGE2 in the same cultures were observed from […].
# TGFbeta = TGFbeta in murine calvarial organ culture (FIG. 2C); type: cell-based, mouse
# Procedure: (§3) We have previously reported AC-100 treatment increases PGE2, TGFbeta and Fibronectin levels in the conditioned media from the murine calvarial organ culture. Histological evaluation of the bones indicated AC-100 increased the amount of new bone formation and numbers of osteoblasts.
# as §1, §2
# BMP2 [2] = test: Synergy with BMP2 in vitro; type: cell-based; conditions: combination with BMP2, in vitro
# Text: (§4) BMP2, a potent osteogenic agent is also a strong stimulator of angiognenesis.
# Fibronectin = Fibronectin in murine calvarial organ culture (FIG. 2D); type: cell-based, mouse
# Procedure: as §3, §1, §2
# FGF2 [3] = test: Angiogenesis antibody array (TranSignal Mouse Angiogenesis Antibody Array) of lysates from AC-100 treated calvariae; type: cell-based; conditions: calvaria lysates
# Text: To investigate whether AC-100 modulates bone anabolic factors that are sequestered within the bone matrix we have analysed lysates from AC-100 treated calvariae.
# Initial experiments analysed the lysates using an angiogenesis antibody array (TranSignal Mouse Angiogenesis Antibody Array, Panomics).
# BMP2 [4] = test: Synergy with BMP2 in vivo, ossicle formation
# Text: as §4
# FGF-2 = FGF-2 production in mouse calvaria organ cultures (FIG. 1); type: cell-based; conditions: tissue lysates and conditioned media
# Procedure: AC-100 at both 1 and 10 uM concentrations increased the production of FGF-2 in mouse calvaria organ cultures. Increases were found in both tissue lysates and in the conditioned media of cultures treated with AC-100.
# PGE2 = PGE2 in murine calvarial organ culture (FIG. 2B); type: cell-based, mouse
# Procedure: as §3, §1, §2
# [5] = tested on: murine calvarial organ culture; test: Histological evaluation of bones from murine calvarial organ culture; type: cell-based, mouse; conditions: histological evaluation of the bones
# Text: as §3
# bone healing = test: Bone healing in diverse animal models; type: in vivo
# Text: Angiogenesis is a crucial part of bone healing.
# [6] = conditioned media, murine calvarial organ culture, previously reported
sequence,measurement,setting,value
TDLQERGDNDISPFSGDGQPFKD [AC-100],FGF2 in conditioned media,"FGF2 [1]; ELISA, conditioned media",not detectable
same,FGF2 in bone lysates,"FGF2 [1]; ELISA, lysates, 30 min through day 5",potent increase
same,production of FGF-2 over time (FIG. 2A),FGF2 [1]; approximately 1 hr to 5 days,increased
same,TGFbeta in bone lysate,"TGFbeta; ELISA, bone lysate",increased
same,TGFbeta in conditioned media,"TGFbeta; ELISA, conditioned media",increased
same,TGFbeta levels,TGFbeta; [6],increases
same,activity with BMP2 in vitro,BMP2 [2],synergistic activities
same,Fibronectin in bone lysate,"Fibronectin; ELISA, bone lysate",increased
same,Fibronectin in conditioned media,"Fibronectin; ELISA, conditioned media",increased
same,Fibronectin levels,Fibronectin; [6],increases
same,FGF2 signal at 2 hr,FGF2 [3]; 2 hr,increased
same,FGF2 signal 24 hr through day 3,FGF2 [3]; 24 hr through day 3,the same as the control bones
same,FGF2 signal at day 5,"FGF2 [3]; day 5, control signal significantly reduced",still strong
same,"FGF2 signal, overall course",FGF2 [3]; versus control bones,earlier and prolonged increase
same,osteons and blood vessels in ossicles,BMP2 [4]; BMP2 and AC-100 co-treatment,contain mature osteons with new blood vessels
same,structure of ossicles formed,BMP2 [4]; BMP2 and AC-100 co-treatment versus BMP2 alone,more mature structure
same,activity with BMP2 in vivo,"BMP2 [4]; combination with BMP2, in vivo",synergistic activities
same,production of FGF-2,FGF-2; AC-100 1 uM,increased
same,production of FGF-2,FGF-2; AC-100 10 uM,increased
same,PGE2 in conditioned media,"PGE2; ELISA, conditioned media",increased
same,PGE2 levels,PGE2; [6],increases
same,PGE2 over time (FIG. 2B),"PGE2; same cultures, days 2-7",Increases
same,amount of new bone formation,[5],increased
same,numbers of osteoblasts,[5],increased
same,healing,bone healing,earlier healing
same,new bone formed,bone healing,increased amount and better quality of new bone
